# Data as given in publication PMC8429728, “TNK1 is a ubiquitin-binding and 14-3-3-regulated kinase that can be targeted to block tumor growth” (Nature Communications, 2021).
# Read-outs that look alike come from different tables or passages of the source.
# Tests used:
# Test in all cases: biochemical
# Set-up in all cases: Reaction Biology 371-kinase panel at Km ATP, per cent enzyme activity relative to DMSO, single dose in duplicate
# [1] = target: PASK (Homo sapiens, UniProt Q96RG2); conditions: duplicate measurements, Km ATP; read-out: % Enzyme Activity (relative to DMSO controls) / TP-0005801 (0.3µM) / Data 1
# Procedure, shortened: (§1)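 First, kinases from a 371-member panel were exposed in vitro to 300 nM inhibitor. Next, % enzyme activity versus DMSO was computed. Finally, IC50s were derived by sigmoidal dose-response fitting with variable slope and a zero bottom constraint.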
# [2] = target: KDR/VEGFR2 (Homo sapiens, UniProt P35968); conditions: duplicate measurements, Km ATP
# Procedure, shortened: as §1
# [3] = target: PKG2/PRKG2 (Homo sapiens, UniProt Q13237); conditions: duplicate measurements, Km ATP; read-out: % Enzyme Activity (relative to DMSO controls) / TP-0005801 (0.3µM) / Data 1
# Procedure, shortened: as §1
# [4] = target: MLK3/MAP3K11 (Homo sapiens, UniProt Q16584); conditions: duplicate measurements, Km ATP
# Procedure, shortened: as §1
# [5] = target: T1, CK1G3 (Homo sapiens, UniProt Q9Y6M4); conditions: duplicate measurements, Km ATP
# T1 construct: gene CSNK1G3
# Procedure, shortened: as §1
# [6] = target: T2, TRKB (Homo sapiens, UniProt Q16620); conditions: duplicate measurements, Km ATP
# T2 construct: gene NTRK2
# Procedure, shortened: as §1
# [7] = target: T3, PKCd (Homo sapiens, UniProt Q05655); conditions: duplicate measurements, Km ATP
# T3 construct: gene PRKCD
# Procedure, shortened: as §1
# [8] = target: CAMK1d (Homo sapiens, UniProt Q8IU85); conditions: duplicate measurements, Km ATP
# Procedure, shortened: as §1
# [9] = target: SRPK2 (Homo sapiens, UniProt P78362); conditions: duplicate measurements, Km ATP
# Procedure, shortened: as §1
# [10] = target: ALK (Homo sapiens, UniProt Q9UM73); conditions: duplicate measurements, Km ATP
# Procedure, shortened: as §1
# [11] = target: DDR2 (Homo sapiens, UniProt Q16832); conditions: duplicate measurements, Km ATP
# Procedure, shortened: as §1
# [12] = target: FLT1/VEGFR1 (Homo sapiens, UniProt P17948); conditions: duplicate measurements, Km ATP
# Procedure, shortened: as §1
# [13] = target: TYK1/LTK (Homo sapiens, UniProt P29376); conditions: duplicate measurements, Km ATP; read-out: % Enzyme Activity (relative to DMSO controls) / TP-0005801 (0.3µM) / Data 1
# Procedure, shortened: as §1
# [14] = target: T4, P38g (Homo sapiens, UniProt P53778); conditions: duplicate measurements, Km ATP
# T4 construct: gene MAPK12
# Procedure, shortened: as §1
# [15] = target: CDK3/cyclin E2 (Homo sapiens, UniProt Q00526); conditions: duplicate measurements, Km ATP
# Procedure, shortened: as §1
# [16] = target: T5, AURORA C (Homo sapiens, UniProt Q9UQB9); conditions: duplicate measurements, Km ATP
# T5 construct: gene AURKC
# Procedure, shortened: as §1
# [17] = target: T6, MKK6 (Homo sapiens, UniProt P52564); conditions: duplicate measurements, Km ATP
# T6 construct: gene MAP2K6
# Procedure, shortened: as §1
# [18] = target: MST1/STK4 (Homo sapiens, UniProt Q13043); conditions: duplicate measurements, Km ATP
# Procedure, shortened: as §1
# [19] = target: T7, MNK1 (Homo sapiens, UniProt Q9BUB5); conditions: duplicate measurements, Km ATP
# T7 construct: gene MKNK1
# Procedure, shortened: as §1
# [20] = target: JAK1 (Homo sapiens, UniProt P23458); conditions: duplicate measurements, Km ATP
# Procedure, shortened: as §1
# [21] = read-out: % Enzyme Activity (relative to DMSO controls) / TP-0005801 (0.3µM) / Data 1
# [22] = read-out: % Enzyme Activity (relative to DMSO controls) / TP-0005801 (0.3µM) / Data 2
# T7 sequence (Q9BUB5 whole entry): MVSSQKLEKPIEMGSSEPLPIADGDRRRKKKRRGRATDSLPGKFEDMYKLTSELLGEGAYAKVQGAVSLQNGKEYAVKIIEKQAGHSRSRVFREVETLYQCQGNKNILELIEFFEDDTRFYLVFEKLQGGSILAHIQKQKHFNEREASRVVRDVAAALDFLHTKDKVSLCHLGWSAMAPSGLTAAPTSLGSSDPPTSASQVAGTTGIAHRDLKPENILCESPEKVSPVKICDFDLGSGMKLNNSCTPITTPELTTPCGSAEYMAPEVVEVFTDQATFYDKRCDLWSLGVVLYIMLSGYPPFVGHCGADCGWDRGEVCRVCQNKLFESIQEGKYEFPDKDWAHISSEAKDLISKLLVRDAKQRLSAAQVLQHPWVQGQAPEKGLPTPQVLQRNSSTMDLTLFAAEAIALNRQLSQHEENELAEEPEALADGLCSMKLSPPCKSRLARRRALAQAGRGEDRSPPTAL
# Chain of FLT1/VEGFR1 (P17948 whole entry): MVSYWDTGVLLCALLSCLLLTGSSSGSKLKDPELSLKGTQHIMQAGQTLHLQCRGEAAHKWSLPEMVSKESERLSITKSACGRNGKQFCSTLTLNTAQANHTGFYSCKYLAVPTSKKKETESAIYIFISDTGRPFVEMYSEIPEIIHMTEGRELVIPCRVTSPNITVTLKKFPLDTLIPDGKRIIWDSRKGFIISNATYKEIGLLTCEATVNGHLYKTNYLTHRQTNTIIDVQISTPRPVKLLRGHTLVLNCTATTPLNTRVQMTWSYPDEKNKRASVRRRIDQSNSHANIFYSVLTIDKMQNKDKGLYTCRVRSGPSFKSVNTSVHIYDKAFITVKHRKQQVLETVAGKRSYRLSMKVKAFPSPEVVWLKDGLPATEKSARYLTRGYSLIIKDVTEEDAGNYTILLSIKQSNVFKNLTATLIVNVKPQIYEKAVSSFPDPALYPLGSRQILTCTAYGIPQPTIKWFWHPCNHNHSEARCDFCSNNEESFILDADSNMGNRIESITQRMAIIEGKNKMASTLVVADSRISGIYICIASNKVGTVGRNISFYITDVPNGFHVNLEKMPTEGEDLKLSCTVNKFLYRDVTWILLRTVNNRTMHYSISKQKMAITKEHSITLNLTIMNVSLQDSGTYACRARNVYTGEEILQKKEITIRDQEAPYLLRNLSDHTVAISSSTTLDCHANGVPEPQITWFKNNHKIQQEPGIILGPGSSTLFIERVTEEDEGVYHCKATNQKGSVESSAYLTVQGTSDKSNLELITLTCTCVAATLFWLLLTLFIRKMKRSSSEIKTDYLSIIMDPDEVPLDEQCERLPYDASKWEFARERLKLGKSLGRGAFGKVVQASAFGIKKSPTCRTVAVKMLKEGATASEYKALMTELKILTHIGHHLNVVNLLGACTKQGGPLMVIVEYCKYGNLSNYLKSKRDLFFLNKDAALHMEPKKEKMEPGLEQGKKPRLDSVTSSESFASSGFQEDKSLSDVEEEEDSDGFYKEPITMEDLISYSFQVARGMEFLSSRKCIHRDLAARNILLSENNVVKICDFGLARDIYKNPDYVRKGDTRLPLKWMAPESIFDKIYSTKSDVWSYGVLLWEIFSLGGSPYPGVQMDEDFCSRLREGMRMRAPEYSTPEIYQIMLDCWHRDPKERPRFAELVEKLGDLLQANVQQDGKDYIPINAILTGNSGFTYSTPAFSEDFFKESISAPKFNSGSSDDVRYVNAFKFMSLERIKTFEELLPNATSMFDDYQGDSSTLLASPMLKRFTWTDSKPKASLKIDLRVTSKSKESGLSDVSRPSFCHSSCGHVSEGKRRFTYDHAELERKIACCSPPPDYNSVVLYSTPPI
# Chain of KDR/VEGFR2 (P35968 whole entry): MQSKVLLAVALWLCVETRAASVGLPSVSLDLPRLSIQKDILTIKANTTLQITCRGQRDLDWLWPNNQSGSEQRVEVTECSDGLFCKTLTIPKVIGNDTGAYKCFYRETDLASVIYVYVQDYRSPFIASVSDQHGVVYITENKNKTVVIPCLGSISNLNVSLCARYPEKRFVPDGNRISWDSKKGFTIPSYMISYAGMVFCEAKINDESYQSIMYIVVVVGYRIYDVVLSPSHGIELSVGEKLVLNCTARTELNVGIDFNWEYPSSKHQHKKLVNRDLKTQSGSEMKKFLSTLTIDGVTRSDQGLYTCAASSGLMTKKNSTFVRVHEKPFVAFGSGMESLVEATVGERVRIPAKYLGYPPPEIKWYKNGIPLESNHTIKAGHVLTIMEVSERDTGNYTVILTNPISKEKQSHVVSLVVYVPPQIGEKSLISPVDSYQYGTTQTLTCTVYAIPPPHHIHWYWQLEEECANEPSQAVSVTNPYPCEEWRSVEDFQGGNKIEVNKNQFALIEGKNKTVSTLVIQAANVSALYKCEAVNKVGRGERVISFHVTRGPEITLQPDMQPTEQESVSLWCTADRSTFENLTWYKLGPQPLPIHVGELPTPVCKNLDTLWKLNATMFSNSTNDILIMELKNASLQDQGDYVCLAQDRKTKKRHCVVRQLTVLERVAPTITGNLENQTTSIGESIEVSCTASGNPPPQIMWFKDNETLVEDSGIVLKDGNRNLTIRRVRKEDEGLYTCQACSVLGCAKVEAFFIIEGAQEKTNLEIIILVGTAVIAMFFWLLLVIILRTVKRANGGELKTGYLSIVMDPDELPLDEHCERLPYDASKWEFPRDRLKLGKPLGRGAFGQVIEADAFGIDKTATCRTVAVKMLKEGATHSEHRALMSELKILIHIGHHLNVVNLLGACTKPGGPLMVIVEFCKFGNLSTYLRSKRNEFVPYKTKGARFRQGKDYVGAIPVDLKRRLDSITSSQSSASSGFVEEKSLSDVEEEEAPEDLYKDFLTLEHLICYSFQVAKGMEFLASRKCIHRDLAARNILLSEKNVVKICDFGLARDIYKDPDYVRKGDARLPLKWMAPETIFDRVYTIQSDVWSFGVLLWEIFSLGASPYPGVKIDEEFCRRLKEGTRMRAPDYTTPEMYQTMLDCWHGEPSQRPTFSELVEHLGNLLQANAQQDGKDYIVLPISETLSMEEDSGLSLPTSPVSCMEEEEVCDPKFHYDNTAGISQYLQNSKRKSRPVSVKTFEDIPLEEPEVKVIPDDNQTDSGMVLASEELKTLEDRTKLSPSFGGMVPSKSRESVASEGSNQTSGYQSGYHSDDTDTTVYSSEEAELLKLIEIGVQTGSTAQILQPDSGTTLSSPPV
# T3 sequence (Q05655 whole entry): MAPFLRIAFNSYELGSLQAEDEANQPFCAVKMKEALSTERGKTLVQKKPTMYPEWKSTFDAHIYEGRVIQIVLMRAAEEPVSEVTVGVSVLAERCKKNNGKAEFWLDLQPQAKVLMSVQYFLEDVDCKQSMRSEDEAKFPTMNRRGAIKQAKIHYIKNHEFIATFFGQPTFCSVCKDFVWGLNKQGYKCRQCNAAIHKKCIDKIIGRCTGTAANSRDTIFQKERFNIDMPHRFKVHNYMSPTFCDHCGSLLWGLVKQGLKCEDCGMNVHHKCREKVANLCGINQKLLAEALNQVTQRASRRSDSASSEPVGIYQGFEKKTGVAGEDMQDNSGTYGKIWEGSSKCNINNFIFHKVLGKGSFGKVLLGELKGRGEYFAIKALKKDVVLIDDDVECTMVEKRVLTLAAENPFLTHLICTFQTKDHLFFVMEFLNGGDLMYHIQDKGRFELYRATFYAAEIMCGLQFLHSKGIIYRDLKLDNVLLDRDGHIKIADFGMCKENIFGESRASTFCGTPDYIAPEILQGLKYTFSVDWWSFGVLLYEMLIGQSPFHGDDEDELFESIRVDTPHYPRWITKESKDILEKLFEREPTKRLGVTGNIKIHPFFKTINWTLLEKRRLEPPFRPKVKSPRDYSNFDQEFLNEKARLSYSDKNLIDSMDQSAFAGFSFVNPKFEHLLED
# Chain of JAK1 (P23458 whole entry): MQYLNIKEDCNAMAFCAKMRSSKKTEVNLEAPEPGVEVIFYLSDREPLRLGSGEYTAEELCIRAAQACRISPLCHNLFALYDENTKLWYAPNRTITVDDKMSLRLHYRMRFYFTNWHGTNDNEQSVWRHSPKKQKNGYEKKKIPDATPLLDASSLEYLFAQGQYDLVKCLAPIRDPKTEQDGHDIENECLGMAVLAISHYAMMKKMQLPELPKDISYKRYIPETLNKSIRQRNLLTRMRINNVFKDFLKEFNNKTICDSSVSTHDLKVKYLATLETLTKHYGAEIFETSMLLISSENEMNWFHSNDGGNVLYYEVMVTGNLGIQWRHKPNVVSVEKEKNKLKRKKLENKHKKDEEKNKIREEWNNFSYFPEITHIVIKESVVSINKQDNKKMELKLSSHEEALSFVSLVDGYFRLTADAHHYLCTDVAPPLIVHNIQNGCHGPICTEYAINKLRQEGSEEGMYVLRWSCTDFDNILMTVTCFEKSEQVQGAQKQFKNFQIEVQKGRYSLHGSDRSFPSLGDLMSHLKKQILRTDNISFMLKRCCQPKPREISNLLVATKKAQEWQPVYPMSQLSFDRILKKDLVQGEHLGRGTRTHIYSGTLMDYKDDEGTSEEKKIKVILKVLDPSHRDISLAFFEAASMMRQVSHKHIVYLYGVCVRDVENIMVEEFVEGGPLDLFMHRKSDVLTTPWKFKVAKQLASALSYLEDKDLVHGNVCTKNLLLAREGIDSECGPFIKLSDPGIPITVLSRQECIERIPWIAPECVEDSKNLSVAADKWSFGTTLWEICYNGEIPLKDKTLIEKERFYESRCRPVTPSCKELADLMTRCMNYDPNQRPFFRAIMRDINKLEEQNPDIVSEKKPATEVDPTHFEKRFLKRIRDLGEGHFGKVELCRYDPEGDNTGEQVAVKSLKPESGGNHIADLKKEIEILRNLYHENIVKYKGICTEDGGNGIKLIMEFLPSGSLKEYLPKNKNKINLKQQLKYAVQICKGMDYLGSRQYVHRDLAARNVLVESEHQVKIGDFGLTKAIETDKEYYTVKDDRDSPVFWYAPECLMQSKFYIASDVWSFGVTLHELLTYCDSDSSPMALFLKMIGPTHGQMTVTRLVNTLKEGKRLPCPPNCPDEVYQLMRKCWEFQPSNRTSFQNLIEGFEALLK
smiles,measurement,setting,value
COc1cc(N2CCN(C)CC2)c(C)cc1Nc1ncc(Br)c(Nc2cccnc2N(C)C)n1 [TP-5801],remaining activity at 0.3 µM,[1],102%
same,remaining activity at 0.3 µM,[2]; [21],93.5%
same,remaining activity at 0.3 µM,[2]; [22],93.2%
same,remaining activity at 0.3 µM,[3],111%
same,remaining activity at 0.3 µM,[4]; [21],89.5%
same,remaining activity at 0.3 µM,[4]; [22],89.3%
same,remaining activity at 0.3 µM,[5]; [21],94.7%
same,remaining activity at 0.3 µM,[5]; [22],93.6%
same,remaining activity at 0.3 µM,[6]; [21],96.1%
same,remaining activity at 0.3 µM,[6]; [22],95.9%
same,remaining activity at 0.3 µM,[7]; [21],113%
same,remaining activity at 0.3 µM,[7]; [22],99.7%
same,remaining activity at 0.3 µM,[8]; [21],75.7%
same,remaining activity at 0.3 µM,[8]; [22],73.7%
same,remaining activity at 0.3 µM,[9]; [21],114%
same,remaining activity at 0.3 µM,[9]; [22],110%
same,remaining activity at 0.3 µM,[10]; [21],3.64%
same,remaining activity at 0.3 µM,[10]; [22],3.52%
same,remaining activity at 0.3 µM,[11]; [21],77.1%
same,remaining activity at 0.3 µM,[11]; [22],75.8%
same,remaining activity at 0.3 µM,[12]; [21],96.8%
same,remaining activity at 0.3 µM,[12]; [22],96.2%
same,remaining activity at 0.3 µM,[13],16.4%
same,remaining activity at 0.3 µM,[14]; [21],104%
same,remaining activity at 0.3 µM,[14]; [22],102%
same,remaining activity at 0.3 µM,[15]; [21],95.5%
same,remaining activity at 0.3 µM,[15]; [22],95.1%
same,remaining activity at 0.3 µM,[16]; [21],97%
same,remaining activity at 0.3 µM,[16]; [22],92.9%
same,remaining activity at 0.3 µM,[17]; [21],116%
same,remaining activity at 0.3 µM,[17]; [22],115%
same,remaining activity at 0.3 µM,[18]; [21],101%
same,remaining activity at 0.3 µM,[18]; [22],97.2%
same,remaining activity at 0.3 µM,[19]; [21],92.5%
same,remaining activity at 0.3 µM,[19]; [22],90.8%
same,remaining activity at 0.3 µM,[20]; [21],104%
same,remaining activity at 0.3 µM,[20]; [22],102%
